This is an account of results in ChEMBL document CHEMBL5465560, “Selectivity Literature for EUbOPEN Chemogenomic Library” (2024).

Assay [1] addresses T1, Serine/threonine-protein kinase DCLK2 (Homo sapiens) (UniProt Q8N568).
T1 sequence (whole entry): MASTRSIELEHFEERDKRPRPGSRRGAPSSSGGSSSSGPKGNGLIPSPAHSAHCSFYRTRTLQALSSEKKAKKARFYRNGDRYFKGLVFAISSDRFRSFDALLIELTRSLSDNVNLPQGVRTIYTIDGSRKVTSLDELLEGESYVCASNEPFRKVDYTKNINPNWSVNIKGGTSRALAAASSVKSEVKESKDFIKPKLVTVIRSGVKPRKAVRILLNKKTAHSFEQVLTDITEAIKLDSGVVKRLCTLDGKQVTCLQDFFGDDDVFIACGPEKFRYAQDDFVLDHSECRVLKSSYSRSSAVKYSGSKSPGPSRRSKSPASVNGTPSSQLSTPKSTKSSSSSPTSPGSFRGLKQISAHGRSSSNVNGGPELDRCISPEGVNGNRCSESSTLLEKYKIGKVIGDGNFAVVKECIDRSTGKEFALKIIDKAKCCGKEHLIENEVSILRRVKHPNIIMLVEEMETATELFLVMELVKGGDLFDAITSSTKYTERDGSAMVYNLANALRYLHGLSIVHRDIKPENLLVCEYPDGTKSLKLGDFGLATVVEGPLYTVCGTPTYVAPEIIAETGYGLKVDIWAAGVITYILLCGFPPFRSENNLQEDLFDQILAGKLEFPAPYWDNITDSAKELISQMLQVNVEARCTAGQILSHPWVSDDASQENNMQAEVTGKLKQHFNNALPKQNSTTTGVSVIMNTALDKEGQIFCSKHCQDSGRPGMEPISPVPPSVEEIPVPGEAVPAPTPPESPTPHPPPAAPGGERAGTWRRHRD
The assay is described as follows: Selectivity interaction (Upstate Kinase Profiler service (Millipore)) EUB0000056c DCLK2. The following applies: at 1 µM.

For assay [2], the target named is Ribosomal protein S6 kinase alpha-4 (Homo sapiens) (UniProt O75676). The following applies: at 10 µM.
Chain of Ribosomal protein S6 kinase alpha-4 (Homo sapiens) (O75676 whole entry, looked up): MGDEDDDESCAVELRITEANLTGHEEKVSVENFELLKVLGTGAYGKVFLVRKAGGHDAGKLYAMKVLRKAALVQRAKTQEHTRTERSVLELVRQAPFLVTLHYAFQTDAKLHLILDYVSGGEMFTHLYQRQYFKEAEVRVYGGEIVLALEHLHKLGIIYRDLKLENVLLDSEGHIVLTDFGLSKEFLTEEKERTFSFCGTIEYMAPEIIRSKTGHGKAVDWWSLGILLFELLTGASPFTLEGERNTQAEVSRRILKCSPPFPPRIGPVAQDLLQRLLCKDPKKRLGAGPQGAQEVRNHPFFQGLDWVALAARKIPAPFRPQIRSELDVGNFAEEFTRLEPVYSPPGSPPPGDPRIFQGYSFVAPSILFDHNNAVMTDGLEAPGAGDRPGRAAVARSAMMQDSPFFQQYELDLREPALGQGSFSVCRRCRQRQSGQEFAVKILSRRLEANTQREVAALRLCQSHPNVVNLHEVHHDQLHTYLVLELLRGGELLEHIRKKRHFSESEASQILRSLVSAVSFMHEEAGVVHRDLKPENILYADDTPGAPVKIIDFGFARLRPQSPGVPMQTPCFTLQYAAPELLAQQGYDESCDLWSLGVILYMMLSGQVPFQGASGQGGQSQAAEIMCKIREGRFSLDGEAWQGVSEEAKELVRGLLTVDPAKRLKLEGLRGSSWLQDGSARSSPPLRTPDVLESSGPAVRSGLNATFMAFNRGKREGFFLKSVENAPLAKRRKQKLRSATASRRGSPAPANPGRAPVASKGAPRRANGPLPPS
Assay [3] concerns the target T2, Serine/threonine-protein kinase TNNI3K (Homo sapiens) (UniProt Q59H18).
T2 sequence (whole entry): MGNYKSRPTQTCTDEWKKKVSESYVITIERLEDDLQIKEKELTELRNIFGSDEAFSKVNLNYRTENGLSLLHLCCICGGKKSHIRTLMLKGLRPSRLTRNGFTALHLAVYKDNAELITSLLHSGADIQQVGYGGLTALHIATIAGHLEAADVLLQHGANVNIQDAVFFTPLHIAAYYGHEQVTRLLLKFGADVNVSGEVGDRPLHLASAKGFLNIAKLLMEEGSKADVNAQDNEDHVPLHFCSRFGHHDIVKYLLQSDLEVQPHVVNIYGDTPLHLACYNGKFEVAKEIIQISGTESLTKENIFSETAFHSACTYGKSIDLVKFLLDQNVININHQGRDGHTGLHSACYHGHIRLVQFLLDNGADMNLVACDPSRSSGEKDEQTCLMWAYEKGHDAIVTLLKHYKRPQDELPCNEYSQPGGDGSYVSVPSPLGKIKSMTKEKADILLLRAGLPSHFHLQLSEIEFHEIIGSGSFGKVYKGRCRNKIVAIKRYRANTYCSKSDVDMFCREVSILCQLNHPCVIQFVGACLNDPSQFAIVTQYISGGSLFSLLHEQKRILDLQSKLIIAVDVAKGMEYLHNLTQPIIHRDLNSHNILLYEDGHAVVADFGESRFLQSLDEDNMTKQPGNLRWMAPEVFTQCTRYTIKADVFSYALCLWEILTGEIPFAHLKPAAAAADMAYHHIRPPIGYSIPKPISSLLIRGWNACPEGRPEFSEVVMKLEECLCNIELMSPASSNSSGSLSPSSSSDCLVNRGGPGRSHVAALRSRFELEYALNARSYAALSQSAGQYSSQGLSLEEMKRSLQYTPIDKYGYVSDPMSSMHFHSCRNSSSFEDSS
The assay can be described thus: Selectivity interaction (KinomeScan (DiscoverX)) EUB0000092b TNNI3K. The following applies: at 10 µM.

The target in assay [4] is T3, Serine/threonine-protein kinase Nek11 (Homo sapiens) (UniProt Q8NG66).
T3 sequence (whole entry): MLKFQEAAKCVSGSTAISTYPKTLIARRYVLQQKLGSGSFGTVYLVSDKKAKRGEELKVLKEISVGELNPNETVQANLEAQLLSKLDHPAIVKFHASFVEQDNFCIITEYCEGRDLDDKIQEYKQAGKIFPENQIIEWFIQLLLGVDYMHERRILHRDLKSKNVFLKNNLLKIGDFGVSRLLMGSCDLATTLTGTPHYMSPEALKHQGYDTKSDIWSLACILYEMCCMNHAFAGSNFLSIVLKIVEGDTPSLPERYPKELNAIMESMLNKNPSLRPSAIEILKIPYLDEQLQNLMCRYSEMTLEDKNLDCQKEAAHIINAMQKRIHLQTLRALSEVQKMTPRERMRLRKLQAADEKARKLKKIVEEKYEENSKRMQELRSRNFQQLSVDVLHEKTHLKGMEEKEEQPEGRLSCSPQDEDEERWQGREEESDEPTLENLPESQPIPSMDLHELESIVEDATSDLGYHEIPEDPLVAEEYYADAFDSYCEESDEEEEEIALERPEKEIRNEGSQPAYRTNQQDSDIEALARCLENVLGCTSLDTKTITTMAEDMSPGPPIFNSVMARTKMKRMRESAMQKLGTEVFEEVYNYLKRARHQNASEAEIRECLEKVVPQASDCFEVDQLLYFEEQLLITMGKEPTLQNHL
The assay is described as follows: Selectivity interaction (KinomeScan (DiscoverX)) EUB0000695a NEK11. As to conditions: at 100 nM.

Assay [5] concerns the target SWI/SNF-related matrix-associated actin-dependent regulator of chromatin subfamily A member 4 (Homo sapiens) (UniProt P51532). The assay is described as follows: Selectivity interaction (Bromodomain panel (DSF asssay)) EUB0000270b SMARCA4.
Assay [6] has as its target Calcium/calmodulin-dependent protein kinase kinase 2 (Homo sapiens) (UniProt Q96RR4). The assay is described as follows: Selectivity interaction (Kinase panel (KiNativ target engagement assay in Jurkat cells)) EUB0001635a CAMKK2. In kind it is cell-based. As to conditions: Selectivity number of off-targets 0.0, Selectivity number of targets 233.0, Source Knowledge https://www.sciencedirect.com/science/article/pii/S2451945619300674?via%3Dihub, at 1 µM.

Chain of Calcium/calmodulin-dependent protein kinase kinase 2 (Homo sapiens) (Q96RR4 2-588 limits assumed): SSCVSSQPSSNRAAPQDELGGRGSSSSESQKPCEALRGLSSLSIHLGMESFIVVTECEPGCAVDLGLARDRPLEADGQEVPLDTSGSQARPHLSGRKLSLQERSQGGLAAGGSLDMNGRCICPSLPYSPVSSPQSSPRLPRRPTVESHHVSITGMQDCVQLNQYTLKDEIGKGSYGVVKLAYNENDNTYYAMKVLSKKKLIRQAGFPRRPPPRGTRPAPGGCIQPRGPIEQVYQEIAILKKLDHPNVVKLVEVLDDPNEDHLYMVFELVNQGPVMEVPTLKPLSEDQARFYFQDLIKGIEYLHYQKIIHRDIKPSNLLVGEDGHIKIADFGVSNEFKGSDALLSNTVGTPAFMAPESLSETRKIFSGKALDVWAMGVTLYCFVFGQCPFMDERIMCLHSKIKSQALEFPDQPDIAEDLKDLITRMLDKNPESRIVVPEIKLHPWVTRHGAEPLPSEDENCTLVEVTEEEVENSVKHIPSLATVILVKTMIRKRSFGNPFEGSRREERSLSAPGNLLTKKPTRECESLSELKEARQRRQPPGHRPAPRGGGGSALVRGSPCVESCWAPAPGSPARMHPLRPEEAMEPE
Chain of SWI/SNF-related matrix-associated actin-dependent regulator of chromatin subfamily A member 4 (Homo sapiens) (P51532 whole entry): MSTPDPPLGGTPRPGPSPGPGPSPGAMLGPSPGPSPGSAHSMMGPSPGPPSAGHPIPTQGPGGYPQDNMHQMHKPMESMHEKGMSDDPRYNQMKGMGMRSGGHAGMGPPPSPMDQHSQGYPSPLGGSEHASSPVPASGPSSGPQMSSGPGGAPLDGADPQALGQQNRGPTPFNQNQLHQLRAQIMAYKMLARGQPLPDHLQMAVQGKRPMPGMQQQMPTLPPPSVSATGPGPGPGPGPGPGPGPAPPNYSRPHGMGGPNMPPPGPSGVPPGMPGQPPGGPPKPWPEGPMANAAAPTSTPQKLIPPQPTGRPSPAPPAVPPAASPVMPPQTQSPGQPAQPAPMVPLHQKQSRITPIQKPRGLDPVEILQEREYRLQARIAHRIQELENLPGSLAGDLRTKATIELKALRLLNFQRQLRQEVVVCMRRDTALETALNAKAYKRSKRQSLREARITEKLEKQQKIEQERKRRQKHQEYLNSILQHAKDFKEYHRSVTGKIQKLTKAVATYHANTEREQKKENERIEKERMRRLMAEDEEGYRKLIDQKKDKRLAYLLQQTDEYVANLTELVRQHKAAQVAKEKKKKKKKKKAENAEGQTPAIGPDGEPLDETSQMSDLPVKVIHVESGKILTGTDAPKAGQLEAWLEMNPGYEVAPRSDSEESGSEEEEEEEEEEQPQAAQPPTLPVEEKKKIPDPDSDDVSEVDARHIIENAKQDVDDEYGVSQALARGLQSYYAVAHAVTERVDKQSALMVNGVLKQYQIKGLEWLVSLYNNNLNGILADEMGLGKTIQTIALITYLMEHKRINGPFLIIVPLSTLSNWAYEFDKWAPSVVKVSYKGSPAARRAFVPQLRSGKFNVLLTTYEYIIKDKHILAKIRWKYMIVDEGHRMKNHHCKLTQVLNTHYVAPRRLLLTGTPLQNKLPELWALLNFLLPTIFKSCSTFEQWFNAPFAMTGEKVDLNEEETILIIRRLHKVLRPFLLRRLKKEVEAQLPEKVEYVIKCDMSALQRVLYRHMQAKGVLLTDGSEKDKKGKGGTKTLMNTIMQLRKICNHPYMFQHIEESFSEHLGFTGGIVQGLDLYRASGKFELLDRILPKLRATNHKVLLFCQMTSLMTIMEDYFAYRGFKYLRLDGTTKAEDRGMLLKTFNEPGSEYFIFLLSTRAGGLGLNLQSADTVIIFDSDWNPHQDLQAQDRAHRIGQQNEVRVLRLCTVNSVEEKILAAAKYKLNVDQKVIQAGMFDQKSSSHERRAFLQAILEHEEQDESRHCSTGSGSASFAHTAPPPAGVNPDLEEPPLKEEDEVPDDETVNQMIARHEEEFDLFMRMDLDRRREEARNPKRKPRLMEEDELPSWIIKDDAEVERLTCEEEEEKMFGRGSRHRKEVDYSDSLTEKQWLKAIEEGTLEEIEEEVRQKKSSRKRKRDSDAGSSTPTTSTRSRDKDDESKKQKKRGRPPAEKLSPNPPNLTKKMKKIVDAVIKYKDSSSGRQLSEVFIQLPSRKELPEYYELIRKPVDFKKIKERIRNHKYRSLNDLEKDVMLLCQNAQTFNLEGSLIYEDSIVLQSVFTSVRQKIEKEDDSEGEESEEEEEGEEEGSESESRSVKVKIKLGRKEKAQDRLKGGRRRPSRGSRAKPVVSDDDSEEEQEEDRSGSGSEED

For `Cc1ccc(-c2ccc3c(ccc4sc5c(c43)NC[C@@H](C)NC5=O)n2)cn1`, in assay [1], the % of inhibition is -1%.

`Cc1cc([C@@H](C)Nc2ccccc2C(=O)O)c2nc(N3CCOCC3)cc(=O)n2c1` [AZD-6482] displayed a % of control in assay [2] of 94%.

Take `CCC(=O)N1CCN(c2ccc(-n3c(=O)ccc4cnc5ccc(-c6cnc7ccccc7c6)cc5c43)cc2C(F)(F)F)CC1`: in assay [3], the % of control came out at 66%. In the case of `Cc1cc(F)c(C(=O)Nc2cccc(-c3nncn3C(C)C)n2)cc1-n1cnc(C2CC2)c1`, the % of control in assay [4] was 78%. For the molecule `Cc1cc(CN)cc(C)c1-c1ncn(C)c1-c1cncn1C`, in assay [5], the dTM was -1.35 K. Regarding `C=CC(=O)Nc1ccc(C(=O)Nc2[nH]nc3c2CN(C(=O)N[C@H](CN(C)C)c2ccccc2)C3(C)C)cc1`, the % of engagement in assay [6] is -3.1%.
